Measurements from ChEMBL document CHEMBL5723584 (2023).
The source made the active and inactive calls. The rule behind the calls is not given here.

Legend:
[1] = biological target: Cyclin-dependent kinase 5/CDK5 activator 1 (Homo sapiens) (UniProt Q00535+Q15078); test: activity of CDK5/p25(h) at 1.0 µM in the Eurofins Kinase panel; assay type: protein-complex assay; conditions: Compound concentration 1.0 uM
[2] = biological target: Cyclin-dependent kinase 13/Cyclin-K (Homo sapiens) (UniProt Q14004+O75909); test: activity of CDK13/cyclinK(h) at 1.0 µM in the Eurofins Kinase panel; assay type: protein-complex assay; conditions: Compound concentration 1.0 uM
[3] = biological target: Leucine-rich repeat serine/threonine-protein kinase 2 (Homo sapiens) (UniProt Q5S007); test: activity of LRRK2(h) at 1.0 µM in the Eurofins Kinase panel; conditions: Compound concentration 1.0 uM
[4] = biological target: Mitogen-activated protein kinase 11 (Homo sapiens) (UniProt Q15759); test: activity of SAPK2b(h) at 1.0 µM in the Eurofins Kinase panel; conditions: Compound concentration 1.0 uM
[5] = biological target: Transcription initiation factor TFIID subunit 1-like (Homo sapiens) (UniProt Q8IZX4); test: activity of TAF1L(h) at 1.0 µM in the Eurofins Kinase panel; conditions: Compound concentration 1.0 uM
[6] = biological target: Serine/threonine-protein kinase SIK3 (Homo sapiens) (UniProt Q9Y2K2); test: activity of SIK3(h) at 1.0 µM in the Eurofins Kinase panel; conditions: Compound concentration 1.0 uM
[7] = biological target: Serine/threonine-protein kinase VRK1 (Homo sapiens) (UniProt Q99986); test: activity of VRK1(h) at 1.0 µM in the Eurofins Kinase panel; conditions: Compound concentration 1.0 uM
[8] = biological target: Leukocyte tyrosine kinase receptor (Homo sapiens) (UniProt P29376); test: activity of LTK(h) at 1.0 µM in the Eurofins Kinase panel; conditions: Compound concentration 1.0 uM
Sequence of Leukocyte tyrosine kinase receptor (Homo sapiens) (P29376 whole entry): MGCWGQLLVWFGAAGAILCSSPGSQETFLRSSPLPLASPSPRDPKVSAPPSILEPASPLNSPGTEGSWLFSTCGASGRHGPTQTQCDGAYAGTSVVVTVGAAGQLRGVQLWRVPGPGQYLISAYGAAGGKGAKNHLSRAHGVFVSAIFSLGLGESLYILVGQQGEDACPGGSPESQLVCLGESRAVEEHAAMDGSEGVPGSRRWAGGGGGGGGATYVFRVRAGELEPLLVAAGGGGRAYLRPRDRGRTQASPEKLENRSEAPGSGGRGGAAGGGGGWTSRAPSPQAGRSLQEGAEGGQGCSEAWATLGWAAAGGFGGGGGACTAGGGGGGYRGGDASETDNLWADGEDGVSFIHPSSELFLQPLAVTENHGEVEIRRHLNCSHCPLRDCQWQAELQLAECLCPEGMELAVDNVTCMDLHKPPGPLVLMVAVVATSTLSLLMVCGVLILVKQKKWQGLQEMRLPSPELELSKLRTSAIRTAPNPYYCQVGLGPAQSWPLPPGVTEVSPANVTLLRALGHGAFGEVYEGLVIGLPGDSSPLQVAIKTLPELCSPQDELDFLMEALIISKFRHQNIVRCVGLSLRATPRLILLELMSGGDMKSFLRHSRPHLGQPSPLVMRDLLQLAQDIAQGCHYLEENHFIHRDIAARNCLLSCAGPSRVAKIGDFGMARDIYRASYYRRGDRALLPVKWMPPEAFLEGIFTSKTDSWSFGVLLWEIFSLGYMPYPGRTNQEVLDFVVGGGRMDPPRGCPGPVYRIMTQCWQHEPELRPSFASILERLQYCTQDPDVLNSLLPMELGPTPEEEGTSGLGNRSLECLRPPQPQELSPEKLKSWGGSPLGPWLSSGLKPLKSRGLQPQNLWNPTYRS

[9] = biological target: Casein kinase II subunit alpha (Homo sapiens) (UniProt P68400); test: activity of CK2alpha1(h) at 1.0 µM in the Eurofins Kinase panel; conditions: Compound concentration 1.0 uM
[10] = biological target: TGF-beta receptor type-2 (Homo sapiens) (UniProt P37173); test: activity of TGFBR2(h) at 1.0 µM in the Eurofins Kinase panel; conditions: Compound concentration 1.0 uM
[11] = biological target: Serine/threonine-protein kinase PAK 4 (Homo sapiens) (UniProt O96013); test: activity of PAK4(h) at 1.0 µM in the Eurofins Kinase panel; conditions: Compound concentration 1.0 uM
[12] = biological target: Death-associated protein kinase 2 (Homo sapiens) (UniProt Q9UIK4); test: activity of DAPK2(h) at 1.0 µM in the Eurofins Kinase panel; conditions: Compound concentration 1.0 uM
[13] = biological target: Serine/threonine-protein kinase pim-1 (Homo sapiens) (UniProt P11309); test: activity of Pim-1(h) at 1.0 µM in the Eurofins Kinase panel; conditions: Compound concentration 1.0 uM
Sequence of Serine/threonine-protein kinase pim-1 (Homo sapiens) (P11309 whole entry, looked up): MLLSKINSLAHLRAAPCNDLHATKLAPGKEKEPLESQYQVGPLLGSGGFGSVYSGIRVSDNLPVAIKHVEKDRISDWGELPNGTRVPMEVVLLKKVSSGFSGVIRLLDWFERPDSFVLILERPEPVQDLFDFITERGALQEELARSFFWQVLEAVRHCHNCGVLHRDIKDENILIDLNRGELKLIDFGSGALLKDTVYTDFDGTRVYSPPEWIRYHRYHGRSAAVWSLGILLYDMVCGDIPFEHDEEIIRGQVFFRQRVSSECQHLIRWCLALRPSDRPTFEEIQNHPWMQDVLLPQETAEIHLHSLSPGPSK

[14] = biological target: Dual specificity mitogen-activated protein kinase kinase 2 (Homo sapiens) (UniProt P36507); test: activity of MEK2(h) at 1.0 µM in the Eurofins Kinase panel; conditions: Compound concentration 1.0 uM
[15] = biological target: Tribbles homolog 2 (Homo sapiens) (UniProt Q92519); test: activity of TRB2(h) at 1.0 µM in the Eurofins Kinase panel; conditions: Compound concentration 1.0 uM
[16] = biological target: Testis-specific serine/threonine-protein kinase 3 (Homo sapiens) (UniProt Q96PN8); test: activity of TSSK3(h) at 1.0 µM in the Eurofins Kinase panel; conditions: Compound concentration 1.0 uM
[17] = biological target: Dual specificity mitogen-activated protein kinase kinase 1 (Homo sapiens) (UniProt Q02750); test: activity of MEK1(h) at 1.0 µM in the Eurofins Kinase panel; conditions: Compound concentration 1.0 uM
[18] = biological target: Receptor-interacting serine/threonine-protein kinase 2 (Homo sapiens) (UniProt O43353); test: activity of RIPK2(h) at 1.0 µM in the Eurofins Kinase panel; conditions: Compound concentration 1.0 uM
[19] = biological target: Tyrosine-protein kinase Lck (Homo sapiens) (UniProt P06239); test: activity of Lck(h) at 1.0 µM in the Eurofins Kinase panel; conditions: Compound concentration 1.0 uM
[20] = biological target: Serine/threonine-protein kinase DCLK1 (Homo sapiens) (UniProt O15075); test: activity of DCAMKL1(h) at 1.0 µM in the Eurofins Kinase panel; conditions: Compound concentration 1.0 uM
Sequence of Serine/threonine-protein kinase DCLK1 (Homo sapiens) (O15075 whole entry): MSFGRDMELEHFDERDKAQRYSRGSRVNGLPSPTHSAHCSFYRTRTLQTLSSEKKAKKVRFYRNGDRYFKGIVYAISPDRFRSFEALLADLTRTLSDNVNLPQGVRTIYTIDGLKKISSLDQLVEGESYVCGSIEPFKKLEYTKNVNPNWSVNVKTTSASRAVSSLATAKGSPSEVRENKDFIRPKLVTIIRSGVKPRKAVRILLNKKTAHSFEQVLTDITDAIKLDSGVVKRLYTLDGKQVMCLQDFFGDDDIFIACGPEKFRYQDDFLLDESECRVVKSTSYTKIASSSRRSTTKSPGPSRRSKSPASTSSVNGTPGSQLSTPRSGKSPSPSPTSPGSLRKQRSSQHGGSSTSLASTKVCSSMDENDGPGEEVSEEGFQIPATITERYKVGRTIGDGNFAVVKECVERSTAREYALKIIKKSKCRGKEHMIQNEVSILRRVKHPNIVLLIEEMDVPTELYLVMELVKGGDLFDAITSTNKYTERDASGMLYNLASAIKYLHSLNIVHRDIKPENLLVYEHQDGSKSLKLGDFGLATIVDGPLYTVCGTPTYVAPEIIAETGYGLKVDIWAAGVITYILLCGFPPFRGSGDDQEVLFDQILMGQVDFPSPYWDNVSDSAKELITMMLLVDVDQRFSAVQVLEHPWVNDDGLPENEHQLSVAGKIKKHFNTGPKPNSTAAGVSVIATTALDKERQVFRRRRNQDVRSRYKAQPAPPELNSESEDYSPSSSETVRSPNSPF

[21] = biological target: Muscle, skeletal receptor tyrosine-protein kinase (Homo sapiens) (UniProt O15146); test: activity of MuSK(h) at 1.0 µM in the Eurofins Kinase panel; conditions: Compound concentration 1.0 uM
Sequence of Muscle, skeletal receptor tyrosine-protein kinase (Homo sapiens) (O15146 whole entry): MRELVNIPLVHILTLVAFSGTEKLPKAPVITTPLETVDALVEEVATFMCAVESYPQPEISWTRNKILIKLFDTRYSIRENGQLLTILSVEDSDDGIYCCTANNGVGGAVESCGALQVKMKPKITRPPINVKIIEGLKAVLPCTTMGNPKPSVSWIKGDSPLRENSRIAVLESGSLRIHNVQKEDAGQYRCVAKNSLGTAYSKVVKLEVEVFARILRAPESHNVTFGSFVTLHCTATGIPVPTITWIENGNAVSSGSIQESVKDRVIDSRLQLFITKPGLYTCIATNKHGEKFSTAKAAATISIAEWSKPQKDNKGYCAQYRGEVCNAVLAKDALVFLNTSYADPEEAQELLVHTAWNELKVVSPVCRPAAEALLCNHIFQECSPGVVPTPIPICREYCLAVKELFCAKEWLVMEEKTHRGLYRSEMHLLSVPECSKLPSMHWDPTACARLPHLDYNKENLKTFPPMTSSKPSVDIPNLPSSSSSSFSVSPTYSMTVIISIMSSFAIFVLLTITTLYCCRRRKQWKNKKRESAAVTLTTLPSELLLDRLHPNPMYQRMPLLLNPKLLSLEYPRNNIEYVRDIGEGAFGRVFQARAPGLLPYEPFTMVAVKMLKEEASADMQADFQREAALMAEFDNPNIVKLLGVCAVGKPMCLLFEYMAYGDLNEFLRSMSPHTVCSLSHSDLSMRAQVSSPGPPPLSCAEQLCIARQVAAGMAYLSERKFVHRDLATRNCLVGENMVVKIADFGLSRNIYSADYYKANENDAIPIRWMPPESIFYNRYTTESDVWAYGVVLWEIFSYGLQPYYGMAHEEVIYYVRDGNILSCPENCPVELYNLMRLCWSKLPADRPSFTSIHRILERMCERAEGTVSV

[22] = biological target: Mitogen-activated protein kinase kinase kinase kinase 2 (Homo sapiens) (UniProt Q12851); test: activity of GCK(h) at 1.0 µM in the Eurofins Kinase panel; conditions: Compound concentration 1.0 uM
[23] = biological target: Casein kinase II subunit alpha' (Homo sapiens) (UniProt P19784); test: activity of CK2alpha2(h) at 1.0 µM in the Eurofins Kinase panel; conditions: Compound concentration 1.0 uM
[24] = biological target: Citron Rho-interacting kinase (Homo sapiens, UniProt O14578); test: NanoLuc NanoBRET (CIT); conditions: read-out: Kd
[25] = biological target: MAP kinase-activated protein kinase 5 (Homo sapiens) (UniProt Q8IW41); test: activity of PRAK(h) at 1.0 µM in the Eurofins Kinase panel; conditions: Compound concentration 1.0 uM
[26] = biological target: Vascular endothelial growth factor receptor 2 (Homo sapiens) (UniProt P35968); test: activity of KDR(h) at 1.0 µM in the Eurofins Kinase panel; conditions: Compound concentration 1.0 uM
Sequence of Vascular endothelial growth factor receptor 2 (Homo sapiens) (P35968 whole entry): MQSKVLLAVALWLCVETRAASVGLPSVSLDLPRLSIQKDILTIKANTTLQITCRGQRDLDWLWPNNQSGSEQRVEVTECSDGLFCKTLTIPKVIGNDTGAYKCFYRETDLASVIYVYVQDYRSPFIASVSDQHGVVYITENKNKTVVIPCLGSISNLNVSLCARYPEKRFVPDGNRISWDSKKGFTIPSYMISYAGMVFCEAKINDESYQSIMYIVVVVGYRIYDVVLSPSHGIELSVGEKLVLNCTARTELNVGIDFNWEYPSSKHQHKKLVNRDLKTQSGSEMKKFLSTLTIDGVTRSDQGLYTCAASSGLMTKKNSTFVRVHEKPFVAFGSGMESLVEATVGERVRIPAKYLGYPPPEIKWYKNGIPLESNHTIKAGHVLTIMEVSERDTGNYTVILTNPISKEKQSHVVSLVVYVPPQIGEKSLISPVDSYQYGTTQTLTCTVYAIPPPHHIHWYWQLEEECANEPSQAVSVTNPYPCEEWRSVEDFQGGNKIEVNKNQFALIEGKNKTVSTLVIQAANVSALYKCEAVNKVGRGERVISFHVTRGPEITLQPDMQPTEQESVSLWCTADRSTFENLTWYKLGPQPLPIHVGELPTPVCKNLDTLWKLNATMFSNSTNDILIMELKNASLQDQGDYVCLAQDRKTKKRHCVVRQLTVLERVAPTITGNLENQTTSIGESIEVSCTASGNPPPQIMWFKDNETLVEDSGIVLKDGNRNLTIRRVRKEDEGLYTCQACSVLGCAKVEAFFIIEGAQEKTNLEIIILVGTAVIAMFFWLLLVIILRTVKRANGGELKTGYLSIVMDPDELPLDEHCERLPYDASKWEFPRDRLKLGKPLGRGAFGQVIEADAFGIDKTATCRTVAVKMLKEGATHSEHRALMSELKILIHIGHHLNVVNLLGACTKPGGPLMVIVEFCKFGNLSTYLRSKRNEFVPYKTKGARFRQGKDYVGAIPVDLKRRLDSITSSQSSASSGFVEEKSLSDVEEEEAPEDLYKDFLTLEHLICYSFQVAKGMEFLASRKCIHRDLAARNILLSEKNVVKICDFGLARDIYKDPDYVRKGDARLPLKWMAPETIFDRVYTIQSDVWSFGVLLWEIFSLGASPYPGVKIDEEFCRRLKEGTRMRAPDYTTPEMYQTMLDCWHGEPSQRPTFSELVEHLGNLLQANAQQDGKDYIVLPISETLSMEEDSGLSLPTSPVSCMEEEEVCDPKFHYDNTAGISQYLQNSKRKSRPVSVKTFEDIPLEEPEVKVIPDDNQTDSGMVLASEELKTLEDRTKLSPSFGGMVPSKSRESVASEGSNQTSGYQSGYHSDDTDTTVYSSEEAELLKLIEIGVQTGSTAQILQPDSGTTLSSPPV

[27] = biological target: Serine/threonine-protein kinase ULK1 (Homo sapiens) (UniProt O75385); test: activity of ULK1(h) at 1.0 µM in the Eurofins Kinase panel; conditions: Compound concentration 1.0 uM
[28] = biological target: RAC-gamma serine/threonine-protein kinase (Homo sapiens) (UniProt Q9Y243); test: activity of PKBgamma(h) at 1.0 µM in the Eurofins Kinase panel; conditions: Compound concentration 1.0 uM
[29] = biological target: MAP/microtubule affinity-regulating kinase 3 (Homo sapiens) (UniProt P27448); test: activity of MARK3(h) at 1.0 µM in the Eurofins Kinase panel; conditions: Compound concentration 1.0 uM
[30] = biological target: Serine/threonine-protein kinase BRSK1 (Homo sapiens) (UniProt Q8TDC3); test: activity of BrSK1(h) at 1.0 µM in the Eurofins Kinase panel; conditions: Compound concentration 1.0 uM
[31] = biological target: Calcium/calmodulin-dependent protein kinase type 1 (Homo sapiens) (UniProt Q14012); test: activity of CaMKI(h) at 1.0 µM in the Eurofins Kinase panel; conditions: Compound concentration 1.0 uM
[32] = biological target: Inhibitor of nuclear factor kappa-B kinase subunit epsilon (Homo sapiens) (UniProt Q14164); test: activity of IKKepsilon(h) at 1.0 µM in the Eurofins Kinase panel; conditions: Compound concentration 1.0 uM
[33] = biological target: Mitogen-activated protein kinase kinase kinase 10 (Homo sapiens) (UniProt Q02779); test: activity of MLK2(h) at 1.0 µM in the Eurofins Kinase panel; conditions: Compound concentration 1.0 uM
Sequence of Mitogen-activated protein kinase kinase kinase 10 (Homo sapiens) (Q02779 whole entry, looked up): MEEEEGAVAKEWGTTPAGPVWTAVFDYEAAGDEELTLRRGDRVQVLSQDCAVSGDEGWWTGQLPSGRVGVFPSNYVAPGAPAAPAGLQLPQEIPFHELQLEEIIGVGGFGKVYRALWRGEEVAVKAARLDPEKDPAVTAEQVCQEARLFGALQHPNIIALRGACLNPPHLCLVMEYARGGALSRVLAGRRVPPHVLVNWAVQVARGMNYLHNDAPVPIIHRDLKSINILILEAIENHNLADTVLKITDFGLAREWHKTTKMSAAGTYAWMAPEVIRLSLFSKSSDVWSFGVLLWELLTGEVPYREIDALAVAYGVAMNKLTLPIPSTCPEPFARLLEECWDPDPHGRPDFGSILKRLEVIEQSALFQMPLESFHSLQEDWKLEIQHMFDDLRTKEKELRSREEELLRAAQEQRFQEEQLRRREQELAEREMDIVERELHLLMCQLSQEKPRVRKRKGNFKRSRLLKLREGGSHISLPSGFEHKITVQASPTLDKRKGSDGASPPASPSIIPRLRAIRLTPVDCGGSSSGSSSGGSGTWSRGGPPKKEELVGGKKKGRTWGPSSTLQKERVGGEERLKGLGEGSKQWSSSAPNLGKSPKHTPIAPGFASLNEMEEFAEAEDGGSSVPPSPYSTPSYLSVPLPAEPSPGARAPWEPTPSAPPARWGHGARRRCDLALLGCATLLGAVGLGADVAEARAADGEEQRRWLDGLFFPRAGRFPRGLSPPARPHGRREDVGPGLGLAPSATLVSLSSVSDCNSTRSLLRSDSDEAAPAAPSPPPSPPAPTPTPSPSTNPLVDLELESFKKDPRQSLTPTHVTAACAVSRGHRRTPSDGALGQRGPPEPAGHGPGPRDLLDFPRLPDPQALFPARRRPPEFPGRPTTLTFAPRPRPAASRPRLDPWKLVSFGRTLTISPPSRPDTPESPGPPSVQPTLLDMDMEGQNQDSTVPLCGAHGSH

[34] = biological target: Homeodomain-interacting protein kinase 4 (Homo sapiens, UniProt Q8NE63); test: Promega NanoBRET (HIPK4)
[35] = organism: Homo sapiens; test: activity of MAPK2(h) at 1.0 µM in the Eurofins Kinase panel; conditions: Compound concentration 1.0 uM
[36] = biological target: Tyrosine-protein kinase CSK (Homo sapiens) (UniProt P41240); test: activity of CSK(h) at 1.0 µM in the Eurofins Kinase panel; conditions: Compound concentration 1.0 uM
[37] = biological target: Ephrin type-B receptor 3 (Homo sapiens) (UniProt P54753); test: activity of EphB3(h) at 1.0 µM in the Eurofins Kinase panel; conditions: Compound concentration 1.0 uM
[38] = biological target: Focal adhesion kinase 1 (Homo sapiens) (UniProt Q05397); test: activity of FAK(h) at 1.0 µM in the Eurofins Kinase panel; conditions: Compound concentration 1.0 uM
[39] = biological target: Fibroblast growth factor receptor 1 (Homo sapiens) (UniProt P11362); test: activity of FGFR1(h) at 1.0 µM in the Eurofins Kinase panel; conditions: Compound concentration 1.0 uM

- activity [1]: 72%
- activity [2]: 99%
- activity [3]: 100%
- activity [4]: 90%
- activity [5]: 101%
- activity [6]: 105%
- activity [7]: 99%
- activity [8]: 97%
- activity [9]: 112%
- activity [10]: 96%
- activity [11]: 83%
- activity [13]: 95%
- activity [14]: 92%
- activity [15]: 104%
- activity [16]: 96%
- activity [17]: 101%
- activity [18]: 97%
- activity [19]: 86%
- activity [20]: 95%
- activity [21]: 96%
- activity [22]: 118%
- activity [23]: 115%
- Kd [24]: 0.0095 µM (active)
- activity [25]: 107%
- activity [26]: 78%
- activity [27]: 95%
- activity [28]: 101%
- activity [29]: 90%
- activity [30]: 96%
- activity [31]: 104%
- activity [32]: 87%
- activity [33]: 77%
- IC50 [34]: > 10 µM (not active)
- activity [35]: 109%
- activity [36]: 92%
- activity [37]: 79%
- activity [38]: 96%
- activity [39]: 100%
Structure (SMILES): Cc1cc2c(-c3ccc(NC(=O)[C@H](N)CC(C)(C)C)cc3C)ccnc2[nH]1
- activity [12]: 109%
